Data reported in patent US5258406A, “Sulfonimidamides” (priority 1992, dated 1993).
Where “and” joins values, the source holds several entries; their conditions need not be identical. Identical values can stand only once. Like-named read-outs stand apart in the source and are kept apart here.

System: 6C3HED lymphosarcoma
Assay: animal or person
Type: in vivo
Details: for inhibition in vivo at 100 mg/kg: read-out: % inhibition of tumor growth, oral, 100 mg/kg, BIDX 8; for inhibition in vivo at 75 mg/kg: read-out: % inhibition of tumor growth, oral, 75 mg/kg, BIDX 8
Method: The compounds were tested in C3H mice bearing a 6C3HED lymphosarcoma, also known as the Gardner lymphosarcoma (GLS), and in a variety of human tumor xenografts in CD1 nu/nu mice, including CX-1, LX-1, HXGC3, and VRC5. The 6C3HED lymphosarcoma was obtained from the Division of Cancer Treatment, National […] Institute, Tumor Bank, maintained at E. G. and G. Mason Research (Worcester, Mass.). The CX-1 human colon carcinoma and the LX-1 human lung carcinoma xenografts were obtained from the National Cancer Institute. The HXGC3 and VRC5 human colon xenografts were obtained from Dr. P. J. Houghton, St. Jude Children's Hospital in Memphis (see Br. J. Cancer, 37, 213 (1978)). First passage tumor was stored in liquid nitrogen using standard techniques. The transplanted tumor was reestablished from the Tumor Bank every six months or as needed. The tumor was maintained by serial passage twice weekly in C3H mice.
In the procedure the tumor was removed from passage animals and minced into 1- to 3-mm square fragments using sterile techniques. Tumor pieces were checked for sterility using both Antibiotic Medium 1 and Brain Heart Infusion (Difco, Detroit, Mich.). Recipient mice were shaved and tumor pieces were implanted subcutaneously in the auxiliary region by trocar. Drug therapy on the appropriate schedule was initiated on the day after tumor implant for 6C3HED and after a seven (7) day delay for xenografts (or other delay as noted in Table 2). The compound being tested was mixed with 2.5% Emulphor EL620 from GAF Corporation (1:40 dilution in saline). Food and water were provided ad libitium. The drug was administered orally in 0.5 ml of 2.5% Emulphor (unless otherwise indicated). The tumor was measured the day after treatment ended with two dimensional measurements (width and length) of the tumor taken using automated digital calipers interfaced to a microcomputer. Approximate weight for the tumor was calculated using the following formula [Worzalla, J. F., et al., Invest. New Drugs, 8, 241 (1990], (tumor weight in mg)=(width in mm)^2 ×(length in mm)/2.
At least one control group of an equal number of mice was treated with the same volume of 2.5% Emulphor only. The percent inhibition was determined by subtracting the ratio of the mean tumor size of the test group relative to the control group from one and multiplying the result times 100.
The results of several experiments in mice bearing a 6C3HED lymphosarcoma (or other tumor where indicated) when the indicated compounds were administered are provided in Table 2. In Table 2, column 1 gives the Example number of the compound used, column 2 lists the dose level in mg/kg, column 3 provides the percent inhibition of tumor growth, column 4 gives the number of mice which died relative to the total number of animals in the group, column 5 gives the method of administration of the compound, and column 6 gives the dosage schedule. The protocol used with other tumors was the same as with the 6C3HED lymphosarcoma.

[1] = Mus musculus, 6C3HED, ip, read-out: % inhibition of tumor growth, IP, 150 mg/kg, DX 8
[2] = Mus musculus, 6C3HED, ip, read-out: % inhibition of tumor growth, IP, 300 mg/kg, DX 8
[3] = Mus musculus, 6C3HED, po, read-out: % inhibition of tumor growth, oral, 25 mg/kg, BIDX 8
[4] = Mus musculus, 6C3HED, po, read-out: % inhibition of tumor growth, oral, 50 mg/kg, BIDX 8
[5] = Mus musculus, 6C3HED, po, read-out: % inhibition of tumor growth, oral, 150 mg/kg, BIDX 8
[6] = Mus musculus, 6C3HED, po, read-out: % inhibition of tumor growth, oral, 300 mg/kg, BIDX 8

SMILES: Cc1ccc(NC(=O)N=S(N)(=O)c2ccc(C)cc2)cc1 (stereo not shown) [Example 24]
- Tox/Tot (mice which died / total) (IP, 150 mg/kg, DX 8): 0/10
- Tox/Tot (mice which died / total) (IP, 300 mg/kg, DX 8): 0/10
- inhibition in vivo at 150 mg/kg [1]: 31%
- inhibition in vivo at 300 mg/kg [2]: 52%
- inhibition in vivo at 150 mg/kg (Mus musculus, 6C3HED, po, read-out: % inhibition of tumor growth, oral, 150 mg/kg, DX 8): 10%
- inhibition in vivo at 300 mg/kg (Mus musculus, 6C3HED, po, read-out: % inhibition of tumor growth, oral, 300 mg/kg, DX 8): 40%
- Tox/Tot (mice which died / total) (oral, 150 mg/kg, DX 8): 0/10
- Tox/Tot (mice which died / total) (oral, 300 mg/kg, DX 8): 0/10

SMILES: NS(=O)(=NC(=O)Nc1ccc(Cl)cc1)c1ccc(Cl)cc1 (stereo not shown) [Example 27]
- inhibition in vivo at 25 mg/kg [3]: 39%
- inhibition in vivo at 50 mg/kg [4]: 80%
- inhibition in vivo at 100 mg/kg (Mus musculus, 6C3HED, po): 100%
- Tox/Tot (mice which died / total) (oral, 25 mg/kg, BIDX 8): 0/10
- Tox/Tot (mice which died / total) (oral, 50 mg/kg, BIDX 8): 0/10
- % inhibition of tumor growth (oral, 100 mg/kg, BIDX 8): 94%
- % inhibition of tumor growth (oral, 200 mg/kg, BIDX 8): TOX
- Tox/Tot (mice which died / total) (oral, 200 mg/kg, BIDX 8): 10/10

SMILES: NS(=O)(=NC(=O)Nc1ccc(Cl)cc1)c1ccc(Br)cc1 (stereo not shown) [Example 30]
- inhibition in vivo at 9 mg/kg (Mus musculus, 6C3HED, po, read-out: % inhibition of tumor growth, oral, 9.00 mg/kg, BIDX 8): 4%
- inhibition in vivo at 18.75 mg/kg (Mus musculus, 6C3HED, po, read-out: % inhibition of tumor growth, oral, 18.75 mg/kg, BIDX 8): 19%
- inhibition in vivo at 37.5 mg/kg (Mus musculus, 6C3HED, po, read-out: % inhibition of tumor growth, oral, 37.5 mg/kg, BIDX 8): 42%
- inhibition in vivo at 50 mg/kg [4]: 55%
- inhibition in vivo at 75 mg/kg (Mus musculus, 6C3HED, po): 67%
- inhibition in vivo at 150 mg/kg [5]: 99%
- Tox/Tot (mice which died / total) (oral, 9.00 mg/kg, BIDX 8): 0/10
- Tox/Tot (mice which died / total) (oral, 18.75 mg/kg, BIDX 8): 1/10
- Tox/Tot (mice which died / total) (oral, 37.5 mg/kg, BIDX 8): 1/10
- Tox/Tot (mice which died / total) (oral, 50 mg/kg, BIDX 8): 0/10
- Tox/Tot (mice which died / total) (oral, 75 mg/kg, BIDX 8): 0/10
- % inhibition of tumor growth (oral, 150 mg/kg, BIDX 8): 89%
- Tox/Tot (mice which died / total) (oral, 150 mg/kg, BIDX 8): 3/10 and 1/10
- % inhibition of tumor growth (oral, 300 mg/kg, BIDX 8): TOX
- Tox/Tot (mice which died / total) (oral, 300 mg/kg, BIDX 8): 10/10

SMILES: CCc1ccc(S(=N)(=O)NC(=O)Nc2ccc(Cl)cc2)cc1 (stereo not shown) [Example 33, N-[[(4-chlorophenyl)amino]carbonyl]-4-ethylbenzenesulfonimidamide]
- inhibition in vivo at 6.25 mg/kg (Mus musculus, 6C3HED, po, read-out: % inhibition of tumor growth, oral, 6.25 mg/kg, BIDX 8): 36%
- inhibition in vivo at 12.5 mg/kg (Mus musculus, 6C3HED, po, read-out: % inhibition of tumor growth, oral, 12.5 mg/kg, BIDX 8): 60%
- inhibition in vivo at 25 mg/kg [3]: 91%
- inhibition in vivo at 50 mg/kg [4]: 98%
- inhibition in vivo at 100 mg/kg (Mus musculus, 6C3HED, po): 99%
- inhibition in vivo at 150 mg/kg [5]: 100%
- inhibition in vivo at 300 mg/kg [6]: 100%
- Tox/Tot (mice which died / total) (oral, 6.25 mg/kg, BIDX 8): 0/10
- Tox/Tot (mice which died / total) (oral, 12.5 mg/kg, BIDX 8): 0/9
- Tox/Tot (mice which died / total) (oral, 25 mg/kg, BIDX 8): 2/10
- Tox/Tot (mice which died / total) (oral, 50 mg/kg, BIDX 8): 1/10
- Tox/Tot (mice which died / total) (oral, 100 mg/kg, BIDX 8): 0/10
- Tox/Tot (mice which died / total) (oral, 150 mg/kg, BIDX 8): 8/10
- Tox/Tot (mice which died / total) (oral, 300 mg/kg, BIDX 8): 8/10

SMILES: Cc1cc(C)cc(S(N)(=O)=NC(=O)Nc2ccc(Cl)cc2)c1 (stereo not shown) [Example 39]
- inhibition in vivo at 100 mg/kg (Mus musculus, 6C3HED, po): 44%
- inhibition in vivo at 200 mg/kg (Mus musculus, 6C3HED, po, read-out: % inhibition of tumor growth, oral, 200 mg/kg, BIDX 8): 77%
- Tox/Tot (mice which died / total) (oral, 100 mg/kg, BIDX 8): 0/10
- Tox/Tot (mice which died / total) (oral, 200 mg/kg, BIDX 8): 0/10

SMILES: CC(=O)OCc1ccc(S(=N)(=O)NC(=O)Nc2ccc(Cl)cc2)cc1 (stereo not shown) [Example 49, N-[[(4-chlorophenyl)amino]carbonyl]-4-(acetoxymethyl)benzenesulfonimidamide]
- Tox/Tot (mice which died / total) (IP, 12.5 mg/kg, DX 8): 0/10
- Tox/Tot (mice which died / total) (IP, 25 mg/kg, DX 8): 0/10
- Tox/Tot (mice which died / total) (IP, 50 mg/kg, DX 8): 1/10
- Tox/Tot (mice which died / total) (IP, 150 mg/kg, DX 8): 8/10
- % inhibition of tumor growth (IP, 300 mg/kg, DX 8): TOX
- Tox/Tot (mice which died / total) (IP, 300 mg/kg, DX 8): 10/10
- inhibition in vivo at 12.5 mg/kg (Mus musculus, 6C3HED, ip, read-out: % inhibition of tumor growth, IP, 12.5 mg/kg, DX 8): 29%
- inhibition in vivo at 25 mg/kg (Mus musculus, 6C3HED, ip, read-out: % inhibition of tumor growth, IP, 25 mg/kg, DX 8): 36%
- inhibition in vivo at 50 mg/kg (Mus musculus, 6C3HED, ip, read-out: % inhibition of tumor growth, IP, 50 mg/kg, DX 8): 63%
- inhibition in vivo at 150 mg/kg [1]: 99%
- inhibition in vivo at 25 mg/kg [3]: 64%
- inhibition in vivo at 50 mg/kg [4]: 87%
- inhibition in vivo at 75 mg/kg (Mus musculus, 6C3HED, po): 96%
- inhibition in vivo at 150 mg/kg [5]: 99%
- inhibition in vivo at 300 mg/kg [6]: 100%
- Tox/Tot (mice which died / total) (oral, 25 mg/kg, BIDX 8): 0/10
- Tox/Tot (mice which died / total) (oral, 50 mg/kg, BIDX 8): 0/10
- Tox/Tot (mice which died / total) (oral, 75 mg/kg, BIDX 8): 0/10
- Tox/Tot (mice which died / total) (oral, 150 mg/kg, BIDX 8): 0/10
- Tox/Tot (mice which died / total) (oral, 300 mg/kg, BIDX 8): 3/10

SMILES: N=S(=O)(NC(=O)Nc1ccc(Cl)cc1)c1ccc(C=O)cc1 (stereo not shown) [Example 51, N-[[(4-chlorophenyl)amino]carbonyl]-4-formylbenzenesulfonimidamide]
- Tox/Tot (mice which died / total) (IP, 150 mg/kg, DX 8): 0/10
- Tox/Tot (mice which died / total) (IP, 300 mg/kg, DX 8): 9/10
- inhibition in vivo at 150 mg/kg [1]: 80%
- inhibition in vivo at 300 mg/kg [2]: 99%
